Reference: PMC9412104, “Biochemical and Structural Insights on the Poplar Tau Glutathione Transferase GSTU19 and 20 Paralogs Binding Flavonoids” (Frontiers in Molecular Biosciences, 2022)
Read-outs that look alike come from different tables or passages of the source.

How the values were obtained:
PtGSTU20 [1] = biological target: T1, PtGSTU20 (Populus trichocarpa, UniProt D2X9R3); assay: Thermal shift assay (SYPRO orange); format: binding
Protocol: (§1) Assays were performed in a mixture (final volume of 25 µL) containing 30 mM Tris-HCl pH 8.0, 100 µM of chemical compounds (diluted in 8% DMSO) originating from a chemical library (Supplementary Tables S2, S3), 20 µM of PtGSTU19 or 20, and 5X SYPRO orange. […] The denaturation temperature, which corresponds to the temperature at which 50% of the total fluorescence is measured, was determined by the nonlinear regression Boltzmann sigmoidal model in GraphPad Prism 8 software for data obtained in the presence of potential ligands. This temperature was compared with a reference assay in which organic compounds were replaced by an equivalent DMSO concentration.

PtGSTU19Y160A = PtGSTU19Y160A (Populus trichocarpa, UniProt B9HKX9, Y160A); assay: GSH-conjugation activity toward model substrates, variant; format: biochemical; conditions: PtGSTU19 Y160A, fixed saturating GSH, mean ± S.D.; for k cat: n = 3; for Km: n = 3, read-out: apparent KM
Chain of PtGSTU19Y160A (B9HKX9 2-219 Y160A): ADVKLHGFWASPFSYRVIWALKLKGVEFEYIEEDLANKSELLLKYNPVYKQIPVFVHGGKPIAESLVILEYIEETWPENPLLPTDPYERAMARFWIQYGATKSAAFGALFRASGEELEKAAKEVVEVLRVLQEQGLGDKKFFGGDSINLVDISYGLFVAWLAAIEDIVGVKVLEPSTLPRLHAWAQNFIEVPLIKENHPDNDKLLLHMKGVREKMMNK
Protocol: (§2) Peroxidase activity toward hydroperoxides was measured using an NADPH coupled spectrophotometric assay ([Pégeot et al., 2014]).
(§3) The measured velocities were corrected by subtracting the rate of the spontaneous nonenzymatic reaction, and three independent experiments were performed at each substrate concentration.

PtGSTU19Y160C = PtGSTU19Y160C (Populus trichocarpa, UniProt B9HKX9, Y160C); assay: as above; format: biochemical; conditions: PtGSTU19 Y160C, fixed saturating GSH, mean ± S.D.; for k cat: n = 3; for Km: n = 3, read-out: apparent KM
Chain of PtGSTU19Y160C (B9HKX9 2-219 Y160C): as the sequence (B9HKX9 2-219 Y160A) above, with A159C counted along it
Protocol: as §2, §3

PtGSTU19Y160F = PtGSTU19Y160F (Populus trichocarpa, UniProt B9HKX9, Y160F); assay: as above; format: biochemical; conditions: for k cat / Km: PtGSTU19 Y160F, GSH-conjugation, fixed saturating GSH, mean ± S.D., n = 3; for Km: read-out: apparent KM
Chain of PtGSTU19Y160F (B9HKX9 2-219 Y160F): as the sequence (B9HKX9 2-219 Y160A) above, with A159F counted along it
Protocol: as §2, §3

PtGSTU20C160Y = PtGSTU20C160Y (Populus trichocarpa, UniProt D2X9R3, C160Y); assay: as above; format: biochemical; conditions: PtGSTU19 C160Y in Table S4, fixed saturating GSH, mean ± S.D.; for k cat: n = 3; for Km: n = 3, read-out: apparent KM
Chain of PtGSTU20C160Y (D2X9R3 2-219 C160Y): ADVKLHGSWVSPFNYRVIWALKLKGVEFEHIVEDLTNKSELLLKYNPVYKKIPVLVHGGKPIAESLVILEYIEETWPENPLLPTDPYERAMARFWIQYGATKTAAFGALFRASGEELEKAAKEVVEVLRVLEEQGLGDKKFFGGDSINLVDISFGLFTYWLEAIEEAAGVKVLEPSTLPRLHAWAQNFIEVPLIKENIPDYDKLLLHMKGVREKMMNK
Protocol: as §2, §3

PtGSTU19 [2] = biological target: T2, PtGSTU19 (Populus trichocarpa, UniProt B9HKX9); assay: GSH-conjugation activity toward model substrates; conditions: for Catalytic efficiency: PtGSTU19
T2 sequence (B9HKX9 entry or part of it): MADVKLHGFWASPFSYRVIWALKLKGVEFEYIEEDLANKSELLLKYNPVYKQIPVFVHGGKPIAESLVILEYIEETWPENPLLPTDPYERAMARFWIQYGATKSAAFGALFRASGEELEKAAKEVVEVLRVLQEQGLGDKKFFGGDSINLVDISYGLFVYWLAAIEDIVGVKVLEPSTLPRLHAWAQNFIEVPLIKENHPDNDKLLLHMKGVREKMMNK

PtGSTU20 [3] = biological target: T1, PtGSTU20; assay: GSH-conjugation activity toward model substrates
PtGSTU19 [4] = biological target: T2, PtGSTU19; assay: Competition (inhibition) assay of GSH-conjugation with PITC as substrate; format: biochemical; conditions: read-out: K i
Protocol: (§4) The measured velocities were corrected by subtracting the rate of the spontaneous nonenzymatic reaction, and three independent experiments were performed at each substrate concentration. The kinetic parameters (k cat and apparent K m) and the inhibition constants (K i) were, respectively, obtained by fitting the data to the nonlinear regression Michaelis–Menten model (kinetic assays) and to the mixed inhibition model (inhibition assays) in GraphPad Prism 8 software ([Copeland, 2013]).

PtGSTU20 [5] = biological target: T1, PtGSTU20; assay: as above; format: biochemical; conditions: read-out: K i
Protocol: as §4

PtGSTU19 [6] = biological target: T2, PtGSTU19; assay: Thermal shift assay (SYPRO orange); format: binding; conditions: for ΔTm at 100 µM: read-out: ΔTd (denaturation temperature difference)
Protocol: as §1

[7] = PtGSTU19, 25°C, fixed 1 mM GSH (0.7 mM with HNE), mean ± S.D., n = 3
[8] = 25°C, fixed 1 mM GSH (0.7 mM with HNE), mean ± S.D., n = 3
[9] = PtGSTU19 20 µM, compound 100 µM, vs DMSO reference, flavonoid set (Table S3, Figure 4)
[10] = PtGSTU19 apo form 20 µM, compound 100 µM, vs DMSO reference, first chemical library screen (Table S2, Figure S9)
[11] = PtGSTU20 apo form 20 µM, compound 100 µM, vs DMSO reference, first chemical library screen (Table S2, Figure S9)
[12] = read-out: ΔTd (denaturation temperature difference)
[13] = PtGSTU20 20 µM, compound 100 µM, vs DMSO reference, flavonoid set (Table S3, Figure 4), read-out: ΔTd (denaturation temperature difference)

T1 sequence (D2X9R3 entry or part of it): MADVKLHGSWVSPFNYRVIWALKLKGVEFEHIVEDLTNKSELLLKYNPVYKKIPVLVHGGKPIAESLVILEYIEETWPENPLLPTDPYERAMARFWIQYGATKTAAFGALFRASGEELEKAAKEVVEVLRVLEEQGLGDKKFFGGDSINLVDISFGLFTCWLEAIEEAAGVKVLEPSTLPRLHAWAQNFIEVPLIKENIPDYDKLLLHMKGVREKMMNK

COc1c(O)cc(O)c2c(=O)cc(-c3ccccc3)oc12 [wogonin]
ΔTm at 100 µM (PtGSTU20 [1]; read-out: ΔTd (denaturation temperature difference), PtGSTU20 20 µM, compound 100 µM, vs DMSO reference, flavonoid set (Table S3, Figure 4)): 5.17 °C

S=C=NCc1ccccc1 [BITC, benzyl-isothiocyanate]
k cat (PtGSTU19Y160A): 6.5 ± 0.2 s⁻¹
Km (PtGSTU19Y160A): 30.6 ± 4.5 µM
k cat (PtGSTU19Y160C): 6.7 ± 0.1 s⁻¹
Km (PtGSTU19Y160C): 54.1 ± 3.3 µM
k cat (PtGSTU19Y160F): 8.3 ± 0.2 s⁻¹
Km (PtGSTU19Y160F): 36.3 ± 3.3 µM
k cat (PtGSTU20C160Y): 4.9 ± 0.1 s⁻¹
Km (PtGSTU20C160Y): 71.4 ± 9.6 µM
Catalytic efficiency (PtGSTU19 [2]): 132200 M⁻¹ s⁻¹
k cat (PtGSTU19 [2]; [7]): 7.0 ± 0.1 s⁻¹
k cat (PtGSTU20 [3]; [8]): 10.4 ± 0.3 s⁻¹

CCCCCC(O)C=CC=O (centres unmarked) [HNE, 4-hydroxy-2-nonenal]
Catalytic efficiency (PtGSTU19 [2]): 2000 M⁻¹ s⁻¹

glutathionyl-phenylacetophenone [GS-PAP]
Ki (PtGSTU19 [4]; PtGSTU19, GSH-conjugating reaction with PITC as substrate, mixed model inhibition, ND = no inhibition was detected): 2.3 ± 0.8 µM
Ki (PtGSTU20 [5]; PtGSTU20, GSH-conjugating reaction with PITC as substrate, mixed model inhibition, ND = no inhibition was detected): 5.1 ± 2.1 µM
ΔTd (denaturation temperature difference) (PtGSTU19 [6]; [9]): 4.99 ± 0.28 °C
ΔTd (denaturation temperature difference) (PtGSTU19 [6]; [10]): +8.39 °C
ΔTd (denaturation temperature difference) (PtGSTU20 [1]; PtGSTU20 20 µM, compound 100 µM, vs DMSO reference, flavonoid set (Table S3, Figure 4)): 6.48 ± 0.17 °C
ΔTd (denaturation temperature difference) (PtGSTU20 [1]; [11]): +9.62 °C

O=c1cc(-c2ccc(O)cc2)oc2cc(O)cc(O)c12 [apigenin]
ΔTm at 100 µM (PtGSTU20 [1]; [12]): 1.41 °C

O=[N+]([O-])c1ccc(Cl)c([N+](=O)[O-])c1 [CDNB]
k cat (PtGSTU19Y160A): 7.2 ± 0.9 s⁻¹
Km (PtGSTU19Y160A): 7040 ± 1380 µM
k cat (PtGSTU19Y160C): 14.0 ± 1.2 s⁻¹
Km (PtGSTU19Y160C): 4160 ± 620 µM
k cat (PtGSTU19Y160F): 17.3 ± 1.0 s⁻¹
Km (PtGSTU19Y160F): 3670 ± 390 µM
k cat (PtGSTU20C160Y): 0.59 ± 0.03 s⁻¹
Km (PtGSTU20C160Y): 2250 ± 229 µM
k cat (PtGSTU19 [2]; [7]): 28.8 ± 2.2 s⁻¹
k cat/K m (PtGSTU19 [2]; [7]): 8.9 ± 0.8 10^3 M^-1s^-1
Catalytic efficiency of PtGSTU19 relative to PtGSTU20 (PtGSTU19 [2]; PtGSTU19 higher than PtGSTU20): 30 times
Km (PtGSTU19 [2]; read-out: apparent K m, PtGSTU19, 25°C, fixed 1 mM GSH (0.7 mM with HNE), mean ± S.D., n = 3): 3390 ± 502 µM
Catalytic efficiency (PtGSTU20 [3]): 300 M⁻¹ s⁻¹
k cat (PtGSTU20 [3]; [8]): 0.59 ± 0.03 s⁻¹
k cat/K m (PtGSTU20 [3]; [8]): 0.33 ± 0.01 10^3 M^-1s^-1
Km (PtGSTU20 [3]; read-out: apparent K m, 25°C, fixed 1 mM GSH (0.7 mM with HNE), mean ± S.D., n = 3): 1780 ± 193 µM

O=C(/C=C/c1ccc(O)c(O)c1)c1ccc(O)cc1O [butein]
ΔTm at 100 µM (PtGSTU20 [1]; [13]): 2.32 °C

O=c1c(O)c(-c2ccccc2)oc2cc(O)cc(O)c12 [Galangin]
Ki (PtGSTU19 [4]): 157 ± 28.7 µM
Ki (PtGSTU20 [5]): 43.8 ± 0.6 µM
ΔTm at 100 µM (PtGSTU19 [6]; [9]): 1.59 ± 0.29 °C
ΔTd (denaturation temperature difference) (PtGSTU20 [1]; PtGSTU20 20 µM, compound 100 µM, vs DMSO reference, flavonoid set (Table S3, Figure 4), 100 µM): 5.89 ± 0.64 °C
ΔTm at 100 µM (PtGSTU20 [1]; [13]): 7.42 °C

O=c1cc(-c2ccccc2)oc2cc(O)cc(O)c12 [Chrysin]
ΔTm at 100 µM (PtGSTU19 [6]): -0.05 ± 0.07 °C
ΔTm at 100 µM (PtGSTU20 [1]; [12]): 2.07 °C

N[C@@H](CCC(=O)N[C@@H](CS)C(=O)NCC(=O)O)C(=O)O [GSH, glutathione]
ΔTd (denaturation temperature difference) (PtGSTU19 [6]; [10]): little or no change
ΔTd (denaturation temperature difference) (PtGSTU20 [1]; [11]): little or no change
apparent affinity for glutathione, reduced by a factor (PtGSTU19Y160F): 4
variation of apparent affinity for glutathione (PtGSTU19Y160F): no variation

S=C=NCCc1ccccc1 [PITC, phenethyl-isothiocyanate]
k cat (PtGSTU19Y160A): 2.3 ± 0.03 s⁻¹
Km (PtGSTU19Y160A): 49.2 ± 2.6 µM
k cat (PtGSTU19Y160C): 3.05 ± 0.05 s⁻¹
Km (PtGSTU19Y160C): 40.3 ± 3 µM
k cat (PtGSTU19Y160F): 3.9 ± 0.07 s⁻¹
Km (PtGSTU19Y160F): 31.1 ± 2.5 µM
k cat (PtGSTU20C160Y): 2.03 ± 0.08 s⁻¹
Km (PtGSTU20C160Y): 58.3 ± 9.2 µM
k cat (PtGSTU19 [2]; [7]): 3.8 ± 0.1 s⁻¹
Catalytic efficiency (PtGSTU20 [3]): 88900 M⁻¹ s⁻¹
k cat (PtGSTU20 [3]; [8]): 5.1 ± 0.1 s⁻¹
